Test results published in the NIST ThermoML archive (doi:10.1016/j.tca.2016.03.003).
± gives the expanded uncertainty stated by the source.

Columns and labels:
[1] = DSC
[2] = Molar enthalpy of transition or fusion; conditions: DSC

Triple point temperature ([1]; Crystal 1) [K] | Triple point temperature ([1]; Crystal 2) [K] | Triple point temperature ([1]; Crystal 3) [K] | Triple point temperature ([1]; Crystal 4) [K] | Molar enthalpy of transition or fusion ([2]; Crystal 1) [kcal/mol] | Molar enthalpy of transition or fusion ([2]; Crystal 2) [kcal/mol] | Compound | Triple point temperature ([1]; Metastable crystal) [K]
244.4 ± 1.2 | 219.5 ± 1.2 | 217.7 ± 1.2 | 184.8 ± 1.2 | – | – | CC(C)(C)Cl [2-chloro-2-methylpropane] | –
329.2 ± 1.2 | 237.5 ± 1.2 | – | – | 0.937 ± 0.115 | 0.992 ± 0.115 | CC(C)(C)CO [2,2-dimethyl-1-propanol] | –

Compound | Triple point temperature ([1]; Crystal 1) [K] | Triple point temperature ([1]; Crystal 2) [K] | Triple point temperature ([1]; Crystal 3) [K] | Triple point temperature ([1]; Crystal 4) [K] | Molar enthalpy of transition or fusion ([2]; Crystal 1) [kcal/mol] | Molar enthalpy of transition or fusion ([2]; Crystal 2) [kcal/mol] | Triple point temperature ([1]; Metastable crystal) [K]
ClC(Cl)(Cl)Cl [tetrachloromethane] | 250.4 ± 1.2 | 226.1 ± 1.2 | – | – | – | – | 245.2 ± 1.2
